Measured values as given in PMC9787607, “A Novel Protocol for the Synthesis of 1,2,4-Oxadiazoles Active against Trypanosomatids and Drug-Resistant Leukemia Cell Lines” (Tropical Medicine and Infectious Disease, 2022).
Where a name gives a salt, the structure may show the parent alone.

What was measured:
[1] = test system: Trypanosoma brucei rhodesiense; parameters: method as in PMID 22217867; conditions: cited from earlier work
T. cruzi [2] = test system: T. cruzi; parameters: method as in PMID 22217867; conditions: cited from earlier work
Leishmania donovani = test system: Leishmania donovani; parameters: method as in PMID 22217867; conditions: cited from earlier work
T. cruzi trypomastigotes = test system: T. cruzi trypomastigotes; parameters: method as in PMID 23006639; conditions: cited from earlier work
T. cruzi [3] = test system: T. cruzi; parameters: method as in PMID 23006639; conditions: cited from earlier work
[4] = test system: L. amazonensis promastigotes; assay: Anti-L. amazonensis promastigote assessment (MTT); assay type: cell-based; conditions: Leishmania amazonensis, 48 h, read-out: EC50 L. amazonensis promastigotes
Experimental: Promastigotes of L. amazonensis (MHOM/BR/75/Josefa) were cultured in Schneider’s insect medium (SIM) with 10% FBS. Parasites were harvested at the stationary growth phase for assessment against promastigotes and 24 h after cultures reached the stationary growth phase for infection assays. […]. Complete SIM media and amphotericin B (AmB) at 10 µM were used as negative and positive controls, respectively. A vehicle control containing SIM with 10% SFB media and 0.3% DMSO was maintained for comparison. The final volume of the experiment was 100 µL. After incubation for 48 h at 27 °C, MTT salt solution in PBS was added (3.0 mM, 20 µL per well). After incubation for 2 h at 27 °C, the MTT formazan was dissolved by adding 120 µL of solubilizing buffer (50% isopropanol, 40% acetate buffer pH 5.4, 10% Triton-X). Absorbance was measured using a microplate reader at 570 nm.
(§1) The percent cell or parasite viability was calculated by the formula: % viability = [(A − P)/(N − P)] × 100, A = absorbance of specific well, P = positive control, N = negative control. Determination of half-maximal effective concentrations (EC50), calculated by logarithmic regression, and significance analysis (p < 0.05), using ANOVA and Dunnett’s test, by GraphPad Prism 7.0 software. The results are expressed as the mean and standard deviation (SD) of three independent experiments.

[5] = test system: L. amazonensis amastigotes; assay: Anti-L. amazonensis amastigote assessment in RAW 264.7 macrophages; assay type: cell-based, Leishmania amazonensis
Experimental: RAW 264.7 cells were seeded in a 96-well microplate (2.0 × 10^4 cells per well) in complete DMEM with 5% FBS and incubated for 3 h at 37 °C in 5% CO2 for cell adhesion. The medium was renewed, and L. amazonensis promastigotes (3.0 × 10^5 parasites per well) were added. After 24 h of incubation at 37 °C in 5% CO2, the cell monolayer was washed with PBS to remove noninternalized parasites, the medium was renewed, and compounds were added at a range of concentrations in triplicate (100–1 μM). Untreated infected cells and noninfected RAW 264.7 cells were used as negative and positive controls, respectively. Vehicle control containing DMEM and 0.3% DMSO was maintained for comparison. After incubation for 48 h at 37 °C in 5% CO2, the medium was removed, and a solution containing 0.02% SDS in PBS (20 µL per well) was added. Macrophage lysis and amastigote release were accompanied under an inverted microscope for 10–15 min. SIM with 12.5% SFB (80 µL per well) was added, parasites were allowed to differentiate into promastigotes for 48 h at 27 °C, and an MTT salt solution in PBS was added (3.0 mM, 20 µL per well). After incubation for 2 h at 27 °C, the MTT formazan was dissolved by adding 120 µL of solubilizing buffer (50% isopropanol, 40% acetate buffer pH 5.4, 10% Triton X). Absorbance was measured using a microplate reader at 570 nm.
as §1

RAW 264.7 cells = assay: Cytotoxicity to RAW 264.7 cells (MTT); assay type: cell-based, murine; conditions: Mus musculus, RAW264.7, 48 h, read-out: EC50 RAW
Experimental: LLC-MK2 kidney fibroblasts (ATCC) and RAW 264.7 macrophages (ATCC) were cultivated in culture flasks in complete DMEM with 5% FBS at 37 °C in 5% CO2. The LLC-MK2 cell monolayer was detached by treatment with trypsin-EDTA 0.05% for 5 min at 37 °C. The RAW cell monolayer was detached mechanically. In both cases, the cells were centrifuged at 480× g for 6 min and resuspended in complete DMEM with 5% FBS, and the cell density was determined by counting with trypan-blue dye exclusion on Neubauer chambers before use.
RAW 264.7 cells were seeded in a 96-well microplate (2.0 × 10^4 cells per well) in complete DMEM with 5% FBS (120 µL per well). After incubation for 24 h at 37 °C in 5% CO2, the medium was renewed, and compounds were added at a range of concentrations in triplicate (100–1 μM). Untreated cells and cells treated with DMEM and 10% DMSO were used as negative and positive controls, respectively. Vehicle control containing DMEM and 0.3% DMSO was maintained for comparison. After incubation for 48 h at 37 °C in 5% CO2, the medium was renewed, and an MTT solution in PBS was added (3.0 mM, 20 µL per well). After incubation for 2 h at 37 °C in 5% CO2, the supernatant was removed, and MTT formazan was dissolved in DMSO (150 µL per well). Absorbance was measured using a microplate reader at 570 nm.
as §1

A375 = test system: A375; parameters: method as in doi:10.1134/S1070363218050304; conditions: cited from earlier work
MCF-7 = test system: MCF-7; parameters: method as in doi:10.1134/S1070363218050304; conditions: cited from earlier work
ACHN = test system: ACHN; parameters: method as in doi:10.1134/S1070363218050304; conditions: cited from earlier work
Lucena-1 (K562/VCR) [6] = assay: cells; assay type: cell-based, human; conditions: reference drugs, Lucena-1/K562, ratio of EC50 values from ref 64
Experimental: (§2) The CML cell lines K562, Lucena-1 (K562/VCR), and FEPS (K562/DNR) were cultured in RPMI-1640 medium supplemented with 25 mM HEPES and 2 g L^−1 sodium bicarbonate adjusted to pH 7.4 with NaOH, 100 U penicillin and […] streptomycin. All media were supplemented with 10% FBS. Dr. Vivian M. Rumjanek (Instituto de Bioquímica Médica, UFRJ, Brazil) kindly donated Lucena-1 and FEPS cells. Briefly, K562 cells were exposed to increasing concentrations of the chemotherapeutic drugs vincristine sulfate (VCR) and daunorubicin hydrochloride (DNR) (both from Sigma-Aldrich), as described previously. Lucena-1 (K562/VCR) and FEPS (K562/DNR) cells were cultured in the presence of either 60 nM VCR or 500 nM DNR to maintain the MDR phenotypes. For subcultures, cells were harvested every three days followed by washing with cold FBS, and a final concentration of 2 × 10^4 cells mL^−1 was maintained at 37 °C in 5% CO2.
(§3) Cell viability was determined by the 3-(4,5-dimethylthiazol-2-yl)-2,5-diphenyltetrazolium (MTT) colorimetric assay. CML cells (2 × 10^4 cells·mL^−1) were incubated for 72 h at 37 °C, followed by treatment with compounds at a range of concentrations (100–1 μM). Negative controls were prepared with 0.5% DMSO. An MTT salt solution was added to each well to a final concentration of 0.5 g·L^−1, and plates were incubated at 37 °C in 5% CO2 for 3 h. After centrifugation, 200 μL DMSO was added to dissolve the dark-blue formazan crystals formed by MTT reduction. Absorbance was measured on a microplate reader at 570 nm, which is directly proportional to formazan contents and indicative of living cells.
as §1

FEPS (K562/DNR) [7] = assay: MTT cytotoxicity to MDR CML cell line FEPS; assay type: cell-based, human; conditions: reference drugs, FEPS/K562, ratio of EC50 values from ref 64
Experimental: as §2, §3, §1

K562 = test system: K562; parameters: method as in PMID 32229586; conditions: reference drugs; cited from earlier work
Lucena-1 (K562/VCR) [8] = test system: Lucena-1 (K562/VCR); parameters: method as in PMID 32229586; conditions: reference drugs; cited from earlier work
FEPS (K562/DNR) [9] = test system: FEPS (K562/DNR); parameters: method as in PMID 32229586; conditions: reference drugs; cited from earlier work
T. cruzi epimastigotes = test system: T. cruzi epimastigotes; parameters: method as in PMID 19517898; conditions: T. cruzi epimastigotes at 50 μM; cited from earlier work
HL-60 = test system: HL-60; parameters: method as in PMID 20411988; conditions: sensitive promyelocytic leukemia; cited from earlier work
HL-60/VCR = test system: HL-60/VCR; parameters: method as in PMID 20411988; conditions: drug-resistant promyelocytic leukemia; cited from earlier work
T. cruzi amastigotes = test system: T. cruzi amastigotes; parameters: method as in PMID 22727447; conditions: cited from earlier work
L. donovani = test system: L. donovani; parameters: method as in PMID 15142541; conditions: cited from earlier work
T. brucei = test system: T. brucei; parameters: method as in PMID 15142541; conditions: cited from earlier work
PC3 = test system: PC3; parameters: method as in PMID 15142541; conditions: cited from earlier work
Vero = test system: Vero; parameters: method as in PMID 15142541; conditions: cited from earlier work
Leishmania amazonensis = test system: Leishmania amazonensis; parameters: method as in PMID 19962891; conditions: cited from earlier work

For `Cc1ccc(-c2noc(CN3N=NC4C(=O)N(c5ccccc5)C(=O)C43)n2)cc1` (stereo not drawn) [Compound 7], the IC50 [1] is given as 21.6 µM, the IC50 (T. cruzi [2]) is given as 100 µM and the IC50 (Leishmania donovani) is given as 5.7 µM.
In the case of `O=C(NN=Cc1ccc2c(c1)OCO2)c1nc(-c2ccc(Cl)cc2)no1` [conjugate 9], the IC50 (T. cruzi trypomastigotes) is listed as 3.5 µM and the “effect on parasitemia in infected mice” value (T. cruzi [3]) is listed as “reduce parasitemia”.
In the case of `C[C@@H]1[C@H](O)[C@@H](C)/C=C/C=C/C=C/C=C/C=C/C=C/C=C/[C@H](O[C@@H]2O[C@H](C)[C@@H](O)[C@H](N)[C@@H]2O)C[C@@H]2O[C@](O)(C[C@@H](O)C[C@@H](O)[C@H](O)CC[C@@H](O)C[C@@H](O)CC(=O)O[C@H]1C)C[C@H](O)[C@H]2C(=O)O` [Amphotericin B, reference compound], the EC50 [4] is reported as 0.094 ± 0.001 µM, the EC50 ([5]; Leishmania amazonensis, RAW264.7, 48 h, read-out: EC50 L. amazonensis intracellular amastigotes) is reported as 0.151 ± 0.022 µM and the “S.I. (selectivity index)” value ([5]; host cell/parasite EC50 ratio, RAW/L. amazonensis) is reported as 65.2. For the same molecule, the EC50 (RAW 264.7 cells) was 9.8 ± 3.3 µM.
In the case of `COc1cc(-c2nc(-c3c(Cl)nc4sc(C)nn34)no2)cc(OC)c1OC` [Compound 6], the IC50 (A375) is given as 1.22 µM, the IC50 (MCF-7) is given as 0.23 µM and the IC50 (ACHN) is given as 0.11 µM.
For `CC[C@]1(O)C[C@H]2CN(CCc3c([nH]c4ccccc34)[C@@](C(=O)OC)(c3cc4c(cc3OC)N(C=O)[C@H]3[C@@](O)(C(=O)OC)[C@H](OC(C)=O)[C@]5(CC)C=CCN6CC[C@]43[C@@H]65)C2)C1` [VCR, vincristine sulfate], the “RR (relative resistance) Lucena-1” value (Lucena-1 (K562/VCR) [6]) is given as 15.7, the “RR (relative resistance) FEPS” value (FEPS (K562/DNR) [7]) is given as 19.4 and the EC50 (K562) is given as 0.054 ± 0.005 µM. The EC50 (Lucena-1 (K562/VCR) [8]) was 0.85 ± 0.12 µM and the EC50 (FEPS (K562/DNR) [9]) was 1.05 ± 0.07 µM.
In the case of `COc1ccc(OC)c(/C=C/C(=O)Nc2nc3ccccc3s2)c1` [Compound 1], the apoptosis (T. cruzi epimastigotes) is listed as 40.2%, the necrosis (T. cruzi epimastigotes) is listed as 17.9% and the parasite death (T. cruzi epimastigotes) is listed as 58.1%.
In the case of `COc1cccc2c1C(=O)c1c(O)c3c(c(O)c1C2=O)C[C@@](O)(C(C)=O)C[C@@H]3O[C@H]1C[C@H](N)[C@H](O)[C@H](C)O1` [DNR, daunorubicin hydrochloride], the “RR (relative resistance) Lucena-1” value (Lucena-1 (K562/VCR) [6]) is listed as 37.3, the “RR (relative resistance) FEPS” value (FEPS (K562/DNR) [7]) is listed as 78.6 and the EC50 (K562) is listed as 0.082 ± 0.001 µM. For the same molecule, the EC50 (Lucena-1 (K562/VCR) [8]) was 3.06 ± 0.87 µM and the EC50 (FEPS (K562/DNR) [9]) was 6.45 ± 1.27 µM.
For `COc1cccc(/C=C/C(=O)Nc2cc(OC)c(OC)c(OC)c2)c1` [Compound 2], the IC50 (HL-60) is listed as 3.1 µM and the IC50 (HL-60/VCR) is listed as 11.6 µM.
For `O=C(/C=C/c1ccc2c(c1)OCO2)c1cccs1` [Compound 4], the IC50 (T. cruzi amastigotes) is given as 5.6 µM.
For `N#CSCc1nc(-c2ccc(Cl)c(Cl)c2)no1` [Compound 8], the IC50 (L. donovani) is given as 2.3 µM, the IC50 (T. brucei) is given as 5.2 µM and the IC50 (PC3) is given as 3.9 µM. The IC50 (Vero) was 70 µM.
For `C=COc1cc(OC)c(C(=O)/C=C/c2ccncc2)c(OC=C)c1` [Compound 3], the IC50 (Leishmania amazonensis) is given as 0.6 µM.
